Reference: patent publication US20230278984A1 (Global Blood Therapeutics, Inc., priority 2020, published 2023)

Target: T1, Human pyruvate kinase R (PKR) (Homo sapiens, UniProt P30613)
T1 construct: Human pyruvate kinase R (PKR), residues 14-574; 6x-His (N, cleaved yes); 8x-Arg (N, cleaved yes); SUMO (N, cleaved yes); host or cells: E. coli
Experiment: Biochemical assay for activation of pyruvate kinase R (Kinase-Glo luminescence measurement of ATP generation)
Conditions: for AC50: PKR biochemical assay, 0.1 nM PKR, 0.3 mM ADP, 2 mM FBP, 0.1 mM PEP; for Emax: maximal activation level relative to the activation level achieved by the literature compound AG-348 @ 10 μM
Protocol: Human pyruvate kinase R (PKR), residues 14-574, and human pyruvate kinase M2, residues 1-531, were cloned into expression plasmids and obtained from ATUM Bio (Newark, Calif.). Proteins were translated as fusions with 6×-His, 8×-Arg, and SUMO at the N-terminus. A third construct of human PKR was truncated, residues 50-574, and similarly cloned for use in crystallography experiments. All proteins were cloned, expressed in E. coli, and purified using similar protocols. Cells were grown at 30° C. in Luria-Bertani broth supplemented with 0.4% glucose to OD600=0.8 and induced with 0.4 mM IPTG at 16° C. for 18 hours. Cells were harvested by centrifugation, resuspended in 50 mM potassium phosphate pH 8.0, 500 mM NaCl, 25 mM imidazole pH 8.0, and 3 mM (3-mercaptoethanol. Cells were lysed using a LM20 microfluidizer from Microfluidics (Westwood, Mass.). The crude lysate was immediately supplemented with 0.2 mM phenylmethylsulfonyl fluoride (PMSF) and centrifuged at 20,000 g for 20 minutes. The soluble fraction was subsequently incubated with 2 mL Ni-NTA (GE Healthcare) per 1,000 ODs for 1 hour at 4° C. Following incubation with the Ni-NTA resin, lysate was removed by pelleting resin at 2,500 g for 3 minutes and washed 3 times with 9 bed volumes of 50 mM potassium phosphate pH 8.0, 500 mM NaCl, 25 mM imidazole, and 3 mM 3-mercaptoethanol. Following the batch wash Ni-NTA resin was loaded onto a gravity column and His-tagged protein was eluted with 6 bed volumes of 10 mM Tris/HCl pH 8.0, 200 mM NaCl, 500 mM imidazole, and 3 mM (3-mercaptoethanol. Eluted protein was dialyzed overnight against 10 mM Tris/HCl pH 8.0, 200 mM NaCl, and 1 mM DTT and the 6×-His-8×-Arg-SUMO-tag was cleaved using a 20:1 molar ratio of protein:3C protease. The protein was purified by anion exchange chromatography on a HiTrapQ or MonoQ 10/100 GL column (GE Healthcare) via a linear NaCl gradient and twice by size exclusion chromatography using a Superdex S200 26/60 column (GE Healthcare) run in 10 mM Tris/HCl pH 8.0, 200 mM NaCl, 10 mM MgCl2, 1 mM DTT. Proteins were concentrated to −12 mg/mL for crystallization and flash frozen for storage.
Biochemical Assay for Activation of Pyruvate Kinase R
Activation of pyruvate kinase R (PKR) and pyruvate kinase M2 (PKM2) were measured using a luminescence based measurement of ATP generation and the Kinase-Glo luminescent kinase reagent kit.

T1 sequence (P30613 14-574): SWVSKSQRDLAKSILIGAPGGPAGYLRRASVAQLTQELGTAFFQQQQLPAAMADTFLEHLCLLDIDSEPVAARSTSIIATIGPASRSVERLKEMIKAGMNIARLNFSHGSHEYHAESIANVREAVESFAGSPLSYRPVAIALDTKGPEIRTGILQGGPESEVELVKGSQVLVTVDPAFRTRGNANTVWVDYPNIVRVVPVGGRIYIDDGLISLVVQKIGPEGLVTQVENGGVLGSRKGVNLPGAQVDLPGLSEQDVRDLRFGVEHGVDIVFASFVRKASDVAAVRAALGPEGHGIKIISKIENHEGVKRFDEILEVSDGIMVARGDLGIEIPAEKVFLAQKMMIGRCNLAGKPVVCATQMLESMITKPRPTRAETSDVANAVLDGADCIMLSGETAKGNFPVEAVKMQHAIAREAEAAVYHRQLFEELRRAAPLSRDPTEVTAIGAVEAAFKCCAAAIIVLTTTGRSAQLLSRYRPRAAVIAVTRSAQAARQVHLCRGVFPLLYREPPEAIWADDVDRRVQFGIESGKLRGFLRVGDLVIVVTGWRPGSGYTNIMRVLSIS

Compound | AC50 | Emax
Cn1ncc2cc(-n3ncnc3CNC(=O)NCc3ncnn3-c3ccc(Cl)c(F)c3)ccc21 [Compound 52, 1-{[1-(4-chloro-3-fluorophenyl)-1H-1,2,4-triazol-5-yl]methyl}-3-{[1-(1-methyl-1H-indazol-5-yl)-1H-1,2,4-triazol-5-yl]methyl}urea] | 24 nM | 37%
Cc1nc(CN(C)C(=O)NCc2ncnn2-c2ccc3cccnc3c2)n(-c2ccc(Cl)c(F)c2)n1 [Compound 53, 1-{[1-(4-chloro-3-fluorophenyl)-3-methyl-1H-1,2,4-triazol-5-yl]methyl}-1-methyl-3-{[1-(quinolin-7-yl)-1H-1,2,4-triazol-5-yl]methyl}urea] | 120 nM | 73%
Cc1nc(CNC(=O)N(C)Cc2ncnn2-c2ccc3cccnc3c2)n(-c2ccc(Cl)c(F)c2)n1 [Compound 54, 3-{[1-(4-chloro-3-fluorophenyl)-3-methyl-1H-1,2,4-triazol-5-yl]methyl}-1-methyl-1-{[1-(quinolin-7-yl)-1H-1,2,4-triazol-5-yl]methyl}urea] | 85 nM | 71%
Cc1nc(CNC(=O)NCc2nc(C3CC3)nn2-c2ccc3cccnc3c2)n(-c2ccc(Cl)c(F)c2)n1 [Compound 55, 3-{[1-(4-chloro-3-fluorophenyl)-3-methyl-1H-1,2,4-triazol-5-yl]methyl}-1-{[3-cyclopropyl-1-(quinolin-7-yl)-1H-1,2,4-triazol-5-yl]methyl}urea] | 79 nM | 90%
O=C(NCc1nnnn1-c1ccc(F)c(F)c1)NCc1nnnn1-c1ccc(F)c(F)c1 [Compound 56, 1,3-bis({[1-(3,4-difluorophenyl)-1H-1,2,3,4-tetrazol-5-yl]methyl})urea] | 1100 nM | 106%
Cc1ccc(-n2ncnc2CNC(=O)NCc2ncnn2-c2ccc(C)c(C)c2)cc1C [Compound 57, 1,3-bis({[1-(3,4-dimethylphenyl)-1H-1,2,4-triazol-5-yl]methyl})urea] | 64 nM | 87%
Cc1ccc(-n2nnnc2CNC(=O)NCc2nnnn2-c2ccc(C)c(F)c2)cc1F [Compound 58, 1,3-bis({[1-(3-fluoro-4-methylphenyl)-1H-1,2,3,4-tetrazol-5-yl]methyl})urea] | 220 nM | 88%
Cc1cc(-n2nnnc2CNC(=O)NCc2nnnn2-c2ccc(Cl)c(C)c2)ccc1Cl [Compound 59, 1,3-bis({[1-(4-chloro-3-methylphenyl)-1H-1,2,3,4-tetrazol-5-yl]methyl})urea] | 1200 nM | 86%
O=C(NCc1nnnn1-c1ccc(Cl)c(Cl)c1)NCc1nnnn1-c1ccc(Cl)c(Cl)c1 [Compound 60, 1,3-bis({[1-(3,4-dichlorophenyl)-1H-1,2,3,4-tetrazol-5-yl]methyl})urea] | 180 nM | 82%
O=C(NCc1ncnn1-c1ccc(Cl)cc1)NCc1ncnn1-c1ccc(Cl)cc1 [Compound 61, 1,3-bis({[1-(4-chlorophenyl)-1H-1,2,4-triazol-5-yl]methyl})urea] | 11 nM | 36%
Cc1cc(-n2nnnc2CNC(=O)NCc2nnnn2-c2ccc(F)c(C)c2)ccc1F [Compound 62, 1,3-bis({[1-(4-fluoro-3-methylphenyl)-1H-1,2,3,4-tetrazol-5-yl]methyl})urea] | 210 nM | 66%
O=C(NCc1nnnn1-c1ccc(Cl)c(F)c1)NCc1nnnn1-c1ccc(Cl)c(F)c1 [Compound 63, 1,3-bis({[1-(4-chloro-3-fluorophenyl)-1H-1,2,3,4-tetrazol-5-yl]methyl})urea] | 63 nM | 99%
O=C(NCc1ncnn1-c1ccc(F)c(Cl)c1)NCc1ncnn1-c1ccc(F)c(Cl)c1 [Compound 64, 1,3-bis({[1-(3-chloro-4-fluorophenyl)-1H-1,2,4-triazol-5-yl]methyl})urea] | 120 nM | 46%
COc1ccc(-n2ncnc2CNC(=O)NCc2ncnn2-c2ccc(OC)cc2)cc1 [Compound 65, 1,3-bis({[1-(4-methoxyphenyl)-1H-1,2,4-triazol-5-yl]methyl})urea] | 1800 nM | 62%
O=C(NCc1ncnn1-c1ccc(Cl)c(F)c1)NCc1ncnn1-c1ccc(Cl)c(F)c1 [Compound 66, 1,3-bis({[1-(4-chloro-3-fluorophenyl)-1H-1,2,4-triazol-5-yl]methyl})urea] | 13 nM | 41%
Cc1ccc(-n2ncnc2CNC(=O)NCc2ncnn2-c2ccc(C)c(F)c2)cc1F [Compound 67, 1,3-bis({[1-(3-fluoro-4-methylphenyl)-1H-1,2,4-triazol-5-yl]methyl})urea] | 44 nM | 58%
O=C(NCc1ncnn1-c1cc(F)cc(Cl)c1)NCc1ncnn1-c1cc(F)cc(Cl)c1 [Compound 68, 1,3-bis({[1-(3-chloro-5-fluorophenyl)-1H-1,2,4-triazol-5-yl]methyl})urea] | 3100 nM | 65%
COc1ccc(-n2nnnc2CNC(=O)NCc2nnnn2-c2ccc(OC)cc2)cc1 [Compound 69, 1,3-bis({[1-(4-methoxyphenyl)-1H-1,2,3,4-tetrazol-5-yl]methyl})urea] | 540 nM | 92%
O=C(NCc1nnnn1-c1ccc(F)c(Cl)c1)NCc1nnnn1-c1ccc(F)c(Cl)c1 [Compound 70, 1,3-bis({[1-(3-chloro-4-fluorophenyl)-1H-1,2,3,4-tetrazol-5-yl]methyl})urea] | 110 nM | 64%
O=C(NCc1ncnn1-c1ccc2ncccc2c1)NCc1ncnn1-c1ccc2ncccc2c1 [Compound 71, 1,3-bis({[1-(quinolin-6-yl)-1H-1,2,4-triazol-5-yl]methyl})urea] | 930 nM | 48%
Cc1ccc(-n2nnnc2CNC(=O)NCc2nnnn2C2CCCCC2)cc1C [Compound 72, 1-[(1-cyclohexyl-1H-1,2,3,4-tetrazol-5-yl)methyl]-3-{[1-(3,4-dimethylphenyl)-1H-1,2,3,4-tetrazol-5-yl]methyl}urea] | 1800 nM | 68%
Cc1nc(CNC(=O)NCc2nc(C)nn2-c2ccc(Cl)cc2)n(-c2ccc(Cl)cc2)n1 [Compound 73, 1,3-bis({[1-(4-chlorophenyl)-3-methyl-1H-1,2,4-triazol-5-yl]methyl})urea] | 190 nM | 107%
Cc1ccc(-n2ncnc2CNC(=O)NCc2ncnn2-c2ccc(C)nc2)cn1 [Compound 74, 1,3-bis({[1-(6-methylpyridin-3-yl)-1H-1,2,4-triazol-5-yl]methyl})urea] | 2800 nM | 36%
O=C(NCc1ncnn1-c1ccc(Cl)c(F)c1)NCc1ncnn1-c1ccc2cccnc2c1 [Compound 75, 1-{[1-(4-chloro-3-fluorophenyl)-1H-1,2,4-triazol-5-yl]methyl}-3-{[1-(quinolin-7-yl)-1H-1,2,4-triazol-5-yl]methyl}urea] | 33 nM | 47%
O=C(NCc1ncnn1-c1ccc(Cl)c(F)c1)NCc1nnnn1-c1ccc2c(c1)OC(F)(F)O2 [Compound 76, 1-{[1-(4-chloro-3-fluorophenyl)-1H-1,2,4-triazol-5-yl]methyl}-3-{[1-(2,2-difluoro-2H-1,3-benzodioxol-5-yl)-1H-1,2,3,4-tetrazol-5-yl]methyl}urea] | 460 nM | 74%
Cc1nc(CNC(=O)NCc2nc(C)nn2-c2ccc(Cl)c(F)c2)n(-c2ccc(Cl)c(F)c2)n1 [Compound 77, 1,3-bis({[1-(4-chloro-3-fluorophenyl)-3-methyl-1H-1,2,4-triazol-5-yl]methyl})urea] | 51 nM | 93%
Cc1nc(CNC(=O)N(C)Cc2nc(C)nn2-c2ccc(Cl)c(F)c2)n(-c2ccc(Cl)c(F)c2)n1 [Compound 78, 1,3-bis({[1-(4-chloro-3-fluorophenyl)-3-methyl-1H-1,2,4-triazol-5-yl]methyl})-1-methylurea] | 110 nM | 88%
Cc1ccc(-n2ncnc2CN(C)C(=O)NCc2nc(C)nn2-c2ccc(Cl)c(F)c2)cn1 [Compound 79, 3-{[1-(4-chloro-3-fluorophenyl)-3-methyl-1H-1,2,4-triazol-5-yl]methyl}-1-methyl-1-{[1-(6-methylpyridin-3-yl)-1H-1,2,4-triazol-5-yl]methyl}urea] | 160 nM | 53%
